Literature values in patent US11534424B2, “Compounds and methods for treatment of primary biliary cholangitis” (Arena Pharmaceuticals, Inc., priority 2017, dated 2022).

Tests used:
[1] = tested on: collagen induced arthritis (CIA); conditions: CIA rats
[2] = tested on: experimental autoimmune encephalomyelitis (EAE); conditions: murine EAE, relative to vehicle
[3] = chronic administration

| SMILES | liver enzyme elevation [3] | also measured |
| --- | --- | --- |
| O=C(O)C[C@H]1CCc2c1[nH]c1ccc(OCc3ccc(C4CCCC4)c(C(F)(F)F)c3)cc21 [Compound 1, (R)-2-(7-(4-cyclopentyl-3-(trifluoromethyl)benzyloxy)-1,2,3,4-tetrahydrocyclopenta[b]indol-3-yl)acetic acid] |  | histological parameters in the knees and ankles [1]: Improvement in histological parameters; disease course, therapeutic administration ([2]; administered day 18 to day 37, similar to fingolimod): reverse the disease relative to vehicle; onset and severity of disease, prophylactic administration ([2]; up to day 25): prevented the onset and severity of disease relative to vehicle up to day 25 |
| CCCCCCCCc1ccc(CCC(N)(CO)CO)cc1 [fingolimod] | liver enzyme elevation has been seen |  |
| CC(C)Oc1ncc(-c2nc(-c3cccc4c3ccn4CCCC(=O)O)no2)cc1Cl [GSK2018682] | liver enzyme elevation has been seen |  |

Further lines, with some results ahead:

| liver enzyme elevation [3] | SMILES | also measured |
| --- | --- | --- |
| liver enzyme elevation has been seen | CCC/N=C1\S/C(=C\c2ccc(OC[C@H](O)CO)c(Cl)c2)C(=O)N1c1ccccc1C [ponesimod] |  |
| liver enzyme elevation has been seen | CC(C)Oc1ccc(-c2nc(-c3cccc4c3CC[C@@H]4NCCO)no2)cc1C#N [ozanimod] |  |
| liver enzyme elevation has been seen | CCc1cc(/C(C)=N/OCc2ccc(C3CCCCC3)c(C(F)(F)F)c2)ccc1CN1CC(C(=O)O)C1 [siponimod] |  |
